Here are results for one compound from article PMC10761072, “Post-transcriptional capping generates coenzyme A-linked RNA” (RNA Biology, 2023).

The test addresses T1, phosphopantetheine adenylyltransferase (PPAT, CoaD) (Escherichia coli, UniProt P0A6I6).
T1 construct: recombinant full-length enzyme expressed from coaD plasmid and purified; hexamer
Nature of the test: capping of […]-labelled 5-mer pppRNA with pPant, denaturing PAGE. As to conditions: read-out: half-maximal inhibition. Type of test: biochemical.

Each structure is given as a SMILES string.

T1 sequence (P0A6I6 whole entry): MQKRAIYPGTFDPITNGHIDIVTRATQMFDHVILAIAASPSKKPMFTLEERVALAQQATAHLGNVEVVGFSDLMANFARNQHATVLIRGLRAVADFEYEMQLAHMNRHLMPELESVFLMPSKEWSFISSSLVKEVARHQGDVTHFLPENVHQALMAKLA

As to `Nc1ncnc2c1ncn2[C@@H]1O[C@H](COP(=O)(O)OP(=O)(O)OP(=O)(O)O)[C@@H](O)[C@H]1O` [ATP], the IC50 was roughly 5 µM.
